1 compound from PMC9485191, “The ERK5/NF-κB signaling pathway targets endometrial cancer proliferation and survival” (Cellular and Molecular Life Sciences, 2022) can be followed below.

The structures appear in SMILES notation.

In assay [1] the target is T1, ERK5 (Homo sapiens, UniProt Q13164).
T1 construct: gene MAPK7
Briefly: in vitro (cell-free) kinase assay at […] ATP ([…] at […] ATP); supported by inhibition of EGF-induced ERK5 phosphorylation in cells. It is filed as biochemical.

In a further assay the test system is AN3CA (endometrial). In words: cells. On the set-up: MTT reduction cytotoxicity assay in human tumour cell lines. Conditions: Homo sapiens, AN3-CA; 48 h, MTT. As for the experimental part: (§1) Cell viability was determined by MTT (3-(4,5-dimethyl-2-thiazolyl)-2,5-diphenyl-2H-tetrazolium Blue, Sigma) reduction assay. For clonogenic assays, cells were seeded in 6-well plates, treated for 14 days and stained with 0.5% crystal violet solution. Colonies with > 40 cells were counted. Cell proliferation was measured by cell counting assay, using a TC10TM automated cell counter (Bio-Rad, Hercules, CA, USA) using Trypan Blue. Cell viability was also determined using a LIVE/DEAD viability/cytotoxicity kit assay (ThermoFisher), as reported before. The above results prompted us to investigate the anticancer activity of ERK5 inhibition in EC. To do so, we used the endometrioid cancer cell lines Ishikawa and AN3CA cells (that carry PTEN deficiency and P53 mutation), as well as the more clinically aggressive non-endometrioid serous adenocarcinoma cell line ARK1 (PI3KCA mutation). In cell viability assays, JWG-071 induced cytotoxicity in the three EC cell lines tested, with IC50 values ranging 2–3 µM. In fact, JWG-071 induced cytotoxicity in a wide panel of cancer cells, including prostate, cervical, neuroblastoma, and glioblastoma cancers (Supplementary Fig. 4).

The test system of a further assay is ARK1 (endometrial). Briefly: cells. The following applies: 48 h, MTT. On the set-up: MTT reduction cytotoxicity assay in human tumour cell lines. As for the experimental part:
as §1

The test system of the next assay is C4-2 (prostate). In words: cells. Further details: MTT reduction cytotoxicity assay in human tumour cell lines. The following applies: 48 h, MTT. As for the experimental part:
as §1

A further assay has as its system Hela (cervical). In words: cells. Further details: MTT reduction cytotoxicity assay in human tumour cell lines. The following applies: Homo sapiens, HeLa; 48 h, MTT. As for the experimental part:
as §1

The next assay concerns IMR-32 (neuroblastoma). Briefly: cells. Further details: MTT reduction cytotoxicity assay in human tumour cell lines. Conditions: Homo sapiens, IMR-32; 48 h, MTT. As for the experimental part: as §1
A further assay has as its system Ishikawa (endometrial). In words: cells. Further details: MTT reduction cytotoxicity assay in human tumour cell lines. Conditions: Homo sapiens, Ishikawa; 48 h, MTT. As for the experimental part: as §1
The test system of a further assay is LN-18 (glioblastoma). In words: cells. On the set-up: MTT reduction cytotoxicity assay in human tumour cell lines. Conditions: Homo sapiens, LN-18; 48 h, MTT. As for the experimental part:
as §1

A further assay deals with SH-SY5Y (neuroblastoma). In words: cells. The following applies: Homo sapiens, SH-SY5Y; 48 h, MTT. Further details: MTT reduction cytotoxicity assay in human tumour cell lines. As for the experimental part:
as §1

Assay [2] has as its target T1, ERK5. Briefly: biochemical. Further details: radiometric 32P-ATP kinase assay, active ERK5, PIMtide substrate, p81 paper, Cherenkov counting. Conditions: 200 uM ATP. The text has this: Gene silencing Validated siRNAs targeting NEMO were from Sigma (ref. EHU032271) and ThermoFisher (ref. AM51331). Scrambled (control) siRNA was from ThermoFisher. siRNAs were transfected into cells using Lipofectamine-2000, following the manufacturer’s recommended protocol. The vectors encoding two different shRNAs targeting ERK5 were from Sigma (TRCN0000010262/pLKO.1; TRCN0000010275/pLKO.1). Lentiviral production is detailed at Supplementary Materials and Methods. In vitro ERK5 kinase activity assay A 40 μL reaction mixture was prepared containing 200 ng of pure active ERK5 (1) and the indicated amount of inhibitor in 50 mM Tris-HCl, pH 7.5, 0.1 mM EGTA, 1 mM 2-mercaptoethanol. […] Assays were carried out for 20 min at 30°C, terminated by applying the reaction mixture onto p81 paper, and the incorporated radioactivity measured by Cherenkov counting. Most of the ERK5 inhibitors developed so far, including JWG-071, are type I competitive inhibitors that target the ATP-binding site. […] Taking in account that the homeostatic levels of intracellular ATP range from 0.5 to 5 mM [31], it is very likely that ERK5 competitive inhibitors (such as JWG-071) should require µM concentrations to displace ATP from the active site in cells. […]

T1 sequence (Q13164 2-816): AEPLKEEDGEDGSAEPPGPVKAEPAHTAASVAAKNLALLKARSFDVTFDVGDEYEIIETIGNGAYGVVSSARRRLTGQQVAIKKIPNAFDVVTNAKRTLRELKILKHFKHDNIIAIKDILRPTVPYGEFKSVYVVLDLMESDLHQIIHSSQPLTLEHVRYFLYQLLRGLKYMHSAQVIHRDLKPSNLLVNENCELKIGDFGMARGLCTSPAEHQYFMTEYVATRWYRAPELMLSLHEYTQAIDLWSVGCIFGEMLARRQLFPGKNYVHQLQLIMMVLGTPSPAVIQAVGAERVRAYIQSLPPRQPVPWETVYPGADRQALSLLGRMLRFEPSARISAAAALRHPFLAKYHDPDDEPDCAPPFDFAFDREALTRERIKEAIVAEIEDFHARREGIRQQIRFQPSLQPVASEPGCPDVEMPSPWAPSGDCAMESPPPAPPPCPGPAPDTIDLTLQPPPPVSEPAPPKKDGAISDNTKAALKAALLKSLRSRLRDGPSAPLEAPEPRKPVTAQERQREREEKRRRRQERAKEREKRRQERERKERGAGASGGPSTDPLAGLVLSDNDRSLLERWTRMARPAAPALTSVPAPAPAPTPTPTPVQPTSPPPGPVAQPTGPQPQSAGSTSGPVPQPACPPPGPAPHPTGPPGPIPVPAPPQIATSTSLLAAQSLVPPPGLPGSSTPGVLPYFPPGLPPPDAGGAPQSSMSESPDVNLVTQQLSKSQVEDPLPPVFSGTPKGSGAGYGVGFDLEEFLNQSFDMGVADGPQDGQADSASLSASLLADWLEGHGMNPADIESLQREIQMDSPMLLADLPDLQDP

With `CCC(C)N1c2ccccc2C(=O)N(C)c2cnc(Nc3ccc(C(=O)N4CCC(N5CCN(C)CC5)CC4)cc3OC)nc21` (stereo not shown) [JWG-071], the IC50 was around 90 nM against ERK5 [1]; 3300 ± 600 nM in the assay with AN3CA (endometrial); 2700 ± 200 nM in the assay on ARK1 (endometrial); 2200 ± 300 nM in the assay on C4-2 (prostate); 2900 ± 700 nM in the assay with Hela (cervical); 1900 ± 300 nM in the assay on IMR-32 (neuroblastoma). Moreover, the half-inhibitory concentration (IC50) in the assay on Ishikawa (endometrial) worked out at 3200 ± 800 nM; with LN-18 (glioblastoma), 2900 ± 400 nM; in the assay on SH-SY5Y (neuroblastoma), 4200 ± 1400 nM; against ERK5 [2] it was 572 ± 51 nM.
